In patent US20070020298A1, “Inhalant formulation containing sulfoalkyl ether gamma-cyclodextrin and corticosteroid” (priority 2003, published 2007):
Where two headings read alike, the source gives them in different places.

How the values were obtained:
[1] = Stability of fluticasone propionate in aqueous SBE6.1-γ-CD solution by HPLC (Example 13); assay type: physicochemical; conditions: for Stability by HPLC: 240 μg/mL in 10% SBE-γ-CD
Description: SBE-γ-CD is suitable for stabilizing corticosteroids in aqueous solutions. A stability study was conducted using fluticasone propionate in aqueous solutions stored at 25° C. or 40° C. having a pH of 4.5 or 6.0.
Fluticasone propionate. A citrate buffer solution at a pH of 4.5 was prepared by mixing various portions of 0.003 M citric acid with 0.003 M of trisodium citrate. A phosphate buffer solution at a pH of 6.0 was prepared by mixing various portions of 0.003 M monobasic sodium phosphate with 0.003 M of dibasic sodium phosphate. These stock solutions contained 10% w/v SBE-Gamma (D.S.=6.1). An excess of fluticasone propionate was added to the vials and equilibrated on a rocker for three days. The samples were then filtered using a PVDF 0.22 μm syringe filter. Aliquots of the solutions were placed into clear glass 2 mL serum vials with aluminum crimp caps and daikyo flurotec septums, and stored at 25° C. and 40° C. Control samples were stored at 5° C. but are not reported here. HPLC analysis of the samples was performed initially, (at time 0), and after 30, 60, 90, and 120 days storage. A stability-indicating HPLC method was used.

[2] = Stability of mometasone furoate in aqueous SBE6.1-γ-CD solution by HPLC (Example 13); assay type: physicochemical; conditions: for Stability by HPLC: 240 μg/mL in […] SBE-γ-CD
Description: A similar study was conducted for mometasone furoate except that a pH of 3.5 or 4.5 was used.
Mometasone furoate. Citrate buffer solutions at a pH of 3.5 and 4.5 were prepared by mixing various portions of 3 mM citric acid with 3 mM sodium citrate. […] An excess of mometasone furoate was added to the vials and equilibrated on a rocker for three days. The samples were then filtered using a PVDF 0.22 μm syringe filter. Aliquots of the solutions were placed into serum vials with rubber stoppers and aluminum crimp seal caps, and stored at 25° C. and 40° C. Control samples were stored at 5° C. […] A stability-indicating HPLC method was used.

[3] = nasal spray in aqueous sulfobutylether-β-cyclodextrin buffer, healthy volunteers; cited from earlier work
[4] = during the time period of observation, concentrations typically used to solubilize pharmaceutical formulations; cited from earlier work

Molecule: CCC(=O)O[C@]1(C(=O)CO)[C@@H](C)C[C@H]2[C@@H]3CCC4=CC(=O)C=C[C@]4(C)[C@@]3(Cl)[C@@H](O)C[C@@]21C [Beclomethasone 17-monopropionate, beclomethasone 17-monopropionate]
- Solubility of beclomethasone form (0.04 M SBE3.4 γ-CD): 0.04 M → 10621.6 μg/mL
- Solubility of beclomethasone form (0.04 M SBE5.24 γ-CD): 0.04 M → 9500.8 μg/mL
- Solubility of beclomethasone form (0.04 M SBE6.1 γ-CD): 0.04 M → 11666.9 μg/mL
- Solubility of beclomethasone form (0.04 M SBE6.7 β-CD): 0.04 M → 6799.6 μg/mL
- Solubility of beclomethasone form (0.04 M SBE7.5 γ-CD): 0.04 M → 8539.1 μg/mL
- Solubility of beclomethasone form (0.04 M γ-CD): 0.04 M → 136.9 μg/mL

Molecule: CCC(=O)OCC(=O)[C@@]1(O)[C@@H](C)C[C@H]2[C@@H]3CCC4=CC(=O)C=C[C@]4(C)[C@@]3(Cl)[C@@H](O)C[C@@]21C [Beclomethasone 21-monopropionate, beclomethasone 21-monopropionate]
- Solubility of beclomethasone form (0.04 M SBE3.4 γ-CD): 0.04 M → 172.6 μg/mL
- Solubility of beclomethasone form (0.04 M SBE5.24 γ-CD): 0.04 M → 139.8 μg/mL
- Solubility of beclomethasone form (0.04 M SBE6.1 γ-CD): 0.04 M → 153.8 μg/mL
- Solubility of beclomethasone form (0.04 M SBE6.7 β-CD): 0.04 M → 50.6 μg/mL
- Solubility of beclomethasone form (0.04 M SBE7.5 γ-CD): 0.04 M → 122.4 μg/mL
- Solubility of beclomethasone form (0.04 M γ-CD): 0.04 M → 9.4 μg/mL

Molecule: CCC(=O)O[C@]1(C(=O)SCF)[C@H](C)C[C@H]2[C@@H]3C[C@H](F)C4=CC(=O)C=C[C@]4(C)[C@@]3(F)[C@@H](O)C[C@@]21C [Fluticasone propionate, fluticasone propionate]
- Stability by HPLC ([1]; pH = 4.5/25° C., 1 Month): 97.88 Area %
- Stability by HPLC ([1]; pH = 4.5/25° C., 2 Months): 98.15 Area %
- Stability by HPLC ([1]; pH = 4.5/25° C., 3 Months): 97.74 Area %
- Stability by HPLC ([1]; pH = 4.5/25° C., 4 Months): 97.36 Area %
- Stability by HPLC ([1]; pH = 4.5/25° C., Initial): 97.99 Area %
- Stability by HPLC ([1]; pH = 4.5/40° C., 1 Month): 97.46 Area %
- Stability by HPLC ([1]; pH = 4.5/40° C., 2 Months): 97.75 Area %
- Stability by HPLC ([1]; pH = 4.5/40° C., 3 Months): 97.41 Area %
- Stability by HPLC ([1]; pH = 4.5/40° C., 4 Months): 96.56 Area %
- Stability by HPLC ([1]; pH = 4.5/40° C., Initial): 97.84 Area %
- change in the amount of fluticasone propionate ([1]; after a period of 4 months in SBE-γ-CD solution): little to no change
- T90 ([1]; at both pHs (4.5 and 6.0)): greater than five years
- estimated shelf-life ([1]; fluticasone propionate formulation of the invention): greater than two years

Molecule: C[C@@H]1C[C@H]2[C@@H]3CCC4=CC(=O)C=C[C@]4(C)[C@@]3(Cl)[C@@H](O)C[C@]2(C)[C@@]1(OC(=O)c1ccco1)C(=O)CCl [Mometasone furoate, mometasone furoate]
- Stability by HPLC ([2]; pH = 3.5/25° C., 1 Month): 99.74 Area %
- Stability by HPLC ([2]; pH = 3.5/25° C., 1 Week): 99.82 Area %
- Stability by HPLC ([2]; pH = 3.5/25° C., 2 Months): 99.73 Area %
- Stability by HPLC ([2]; pH = 3.5/25° C., 2 Weeks): 99.79 Area %
- Stability by HPLC ([2]; pH = 3.5/25° C., 3 Months): 99.68 Area %
- Stability by HPLC ([2]; pH = 3.5/25° C., 6 Months): 99.36 Area %
- Stability by HPLC ([2]; pH = 3.5/25° C., Initial): 99.72 Area %
- Stability by HPLC ([2]; pH = 3.5/40° C., 1 Month): 99.10 Area %
- Stability by HPLC ([2]; pH = 3.5/40° C., 1 Week): 99.72 Area %
- Stability by HPLC ([2]; pH = 3.5/40° C., 2 Months): 98.56 Area %
- Stability by HPLC ([2]; pH = 3.5/40° C., 2 Weeks): 99.55 Area %
- Stability by HPLC ([2]; pH = 3.5/40° C., 3 Months): 97.97 Area %
- Stability by HPLC ([2]; pH = 3.5/40° C., 6 Months): 94.97 Area %
- Stability by HPLC ([2]; pH = 3.5/40° C., Initial): 99.72 Area %
- Stability by HPLC ([2]; pH = 4.5/40° C., 1 Month): 99.19 Area %
- Stability by HPLC ([2]; pH = 4.5/40° C., 1 Week): 99.72 Area %
- Stability by HPLC ([2]; pH = 4.5/40° C., 2 Months): 98.65 Area %
- Stability by HPLC ([2]; pH = 4.5/40° C., 2 Weeks): 99.57 Area %
- Stability by HPLC ([2]; pH = 4.5/40° C., 3 Months): 97.85 Area %
- Stability by HPLC ([2]; pH = 4.5/40° C., 6 Months): 96.01 Area %
- Stability by HPLC ([2]; pH = 4.5/40° C., Initial): 99.76 Area %
- Stability by HPLC ([2]; pH = 4.5 @ 25° C., 1 Month): 99.73 Area %
- Stability by HPLC ([2]; pH = 4.5 @ 25° C., 1 Week): 99.82 Area %
- Stability by HPLC ([2]; pH = 4.5 @ 25° C., 2 Months): 99.71 Area %
- Stability by HPLC ([2]; pH = 4.5 @ 25° C., 2 Weeks): 99.81 Area %
- Stability by HPLC ([2]; pH = 4.5 @ 25° C., 3 Months): 99.62 Area %
- Stability by HPLC ([2]; pH = 4.5 @ 25° C., 6 Months): 99.47 Area %
- Stability by HPLC ([2]; pH = 4.5 @ 25° C., Initial): 99.76 Area %
- T90 ([2]; both pH's (3.5 and 4.5) at 25° C.): exceed two years
- estimated shelf-life ([2]; mometasone furoate formulation of the invention): greater than two years
- T90, stable for ([2]; pH 4.5, 25° C.): six to eight years

Molecule: Cc1ncc2n1-c1ccc(Cl)cc1C(c1ccccc1F)=NC2 [midazolam]
- side effects [3]: No serious side effects

Molecule: Sulfobutyl ether β-cyclodextrin [CAPTISOL]
- hemolytic behavior [4]: essentially no hemolytic behavior
